Results reported in patent publication US20210252175A1, “NOVEL COMPOUNDS FOR DIAGNOSIS” (AC IMMUNE SA, priority 2018, published 2021).
pKd, pKi: −log10 of the molar value. “Also recorded” adds a separate entry of the source. Like-named read-outs stand apart in the source and are kept apart here.

Tests used:
[1] = molecular target: T1, Recombinant human full-length wild-type aSyn fibrils (Homo sapiens, UniProt P37840); experiment: Radio-binding competition assay on recombinant aSyn fibrils; settings: for improvement of Ki value on aSyn fibrils compared to compounds 70 and 71 of WO2017/153601: head-to-head within the same measurement; for binding to aSyn fibrils in comparison to Examples 70 and 71 of WO2017/153601: comparison of Ki values of Table 9; for pKd: read-out: Kd of the radioligand on aSyn fibrils
T1 construct: Recombinant human full-length wild-type aSyn bacterially expressed; purchased rPeptide, US
Description: Recombinant human full-length wild-type aSyn bacterially expressed was obtained from a commercial provider (rPeptide, US). Protein preparation was transferred into polycarbonate centrifuge tubes (8×51 mm; Beckman 355657) and centrifuged at 100,000 g (38,000 rounds per minute, RPM) in an ultracentrifuge (Beckman, XL100K) for 60 min at 4° C. using the pre-cooled 50.4 Ti rotor (Beckman) to pellet any aggregated material. Supernatant was transferred into a sterile, low retention tube at a final concentration of 5 mg/mL and final volume of 0.5 mL in PBS. The protein was placed in a Thermomixer (Eppendorf) and incubated for 7 days at 37° C. with orbital shaking at 1000 rpm to generate aSyn fibrils.
Material containing aSyn fibrils was transferred into polycarbonate centrifuge tubes (8×51 mm; Beckman 355657) and centrifuged at 100,000 g (38,000 RPM) in an ultracentrifuge (Beckman, XL100K) for 60 min at 4° C. using the pre-cooled 50.4 Ti rotor. The supernatant containing still monomeric aSyn was transferred into new tubes and its concentration was determined. The pellet was resuspended with equal volume of PBS and subjected to further rounds of ultracentrifugation until the concentration obtained for the supernatant was below 0.1 mg/mL. The pellet obtained at the last round of ultracentrifugation containing aSyn fibrils was aliquoted and stored at −80° C. until use. Aggregated aSyn was used at a concentration of 1 μM in radiobinding assays.
Determination of the Binding Affinity (Ki) by Radio-Binding Competition Assay Recombinant aSyn fibrils at concentration of 1 μM were incubated with [^3H] Example 69 disclosed in WO2017/153601, used as aSyn reference binder, at concentrations between 25 nM and 35 nM. The example compounds of this invention were incubated at increasing concentrations in the range 0.4 nM to 2 μM for 120 minutes at 25° C. 90 μL of samples in duplicates were then filtered under vacuum on a GF/C filter plate (PerkinElmer 6005174) to trap the aSyn fibrils with the bound radio-ligand, and washed five times with Tris 50 mM buffer pH 7-5. The GF/C filters were then vacuum-dried, 50 μL scintillation liquid (Ultimate Gold MB, PerkinElmer) was added in each well, and the filters were analyzed on a Microbeta2 device. Non-specific signal was determined with an excess of un-labeled ligand and specific binding was calculated by subtracting the non-specific signal from the total signal. Competition was calculated as percent, where 0% was defined as the specific binding in the presence of vehicle (0.1% DMSO in 50 mM Tris in 0.9% NaCl, 0.1% BSA) and 100% as the values obtained in the presence of excess cold Example 69 disclosed in WO2017/153601. All measurements were performed with at least two technical replicates. The K; values were calculated by nonlinear regression, one site specific binding using Prism V7 (GraphPad). Ki values to recombinant aSyn fibrils were determined in independent experiments and two different batches of aSyn fibrils, derived from the same source but different lots of monomeric aSyn. Results of radio-binding competition assay for the example compounds tested in parallel within the same experiment are shown in Table 9 as measurements A and B. Measurement A was performed on one batch of aSyn fibrils; the Kd for the radioligand [^3H] Example 69 disclosed in WO20171153601 for this batch of aSyn fibrils was 32 nM. Measurement B was performed on second batch of aSyn fibrils, the corresponding Kd for the radioligand [^3H] Example 69 disclosed in WO2017/153601 for the second batch of aSyn fibrils was 60 nM.

[2] = molecular target: T2, Aβ pathological aggregates present in the human AD insoluble fractions (Homo sapiens, UniProt P05067); experiment: Radio-binding competition assay on human AD insoluble fraction; settings: for pKi: radioligand [3H] Example 47 of WO2017/153601 at 7 nM
T2 construct: "4.7 g of frontal lobe tissue from post-mortem brain of one Alzheimer's disease (AD) patient"
T2 sequence (P05067 whole entry): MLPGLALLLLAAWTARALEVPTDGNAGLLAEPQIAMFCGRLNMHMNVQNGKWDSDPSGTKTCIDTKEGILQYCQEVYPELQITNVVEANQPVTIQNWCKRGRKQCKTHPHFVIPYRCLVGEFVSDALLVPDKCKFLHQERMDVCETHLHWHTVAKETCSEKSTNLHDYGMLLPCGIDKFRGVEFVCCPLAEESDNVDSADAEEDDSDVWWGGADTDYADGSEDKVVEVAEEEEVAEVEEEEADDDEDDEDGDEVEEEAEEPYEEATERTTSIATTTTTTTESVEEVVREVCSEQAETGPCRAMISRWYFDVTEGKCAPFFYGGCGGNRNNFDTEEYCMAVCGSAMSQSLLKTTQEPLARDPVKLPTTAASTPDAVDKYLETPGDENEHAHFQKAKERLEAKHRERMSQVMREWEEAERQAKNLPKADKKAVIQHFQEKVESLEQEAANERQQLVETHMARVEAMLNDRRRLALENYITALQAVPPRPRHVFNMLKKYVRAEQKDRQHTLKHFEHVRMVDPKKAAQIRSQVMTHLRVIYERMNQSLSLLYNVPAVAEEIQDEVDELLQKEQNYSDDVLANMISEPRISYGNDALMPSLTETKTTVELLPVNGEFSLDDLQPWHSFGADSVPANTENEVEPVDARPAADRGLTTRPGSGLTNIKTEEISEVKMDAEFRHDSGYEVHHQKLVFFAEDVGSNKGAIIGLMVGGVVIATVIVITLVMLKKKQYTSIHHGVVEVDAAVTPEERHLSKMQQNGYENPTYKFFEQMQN
Description: 4.7 g of frontal lobe tissue from post-mortem brain of one Alzheimer's disease (AD) patient were purchased from an external provider (Tissue Solutions Ltd., UK). The patient was a […] and died […]. The brain sample was collected 7.7 hours post-mortem and characterized for Braak disease stage (Braak, H.; Braak, E. Acta Neuropathol., 1991, 82, 239-259) as stage VI. For the preparation of the insoluble fractions, around 3 g of the AD human brain was thawed on ice and homogenized with 8.9 mL of homogenization buffer (0.75 M NaCl, 5 mM EDTA, 50 mM Tris-HCl, pH 7.5) supplemented with protease inhibitors (Complete; Roche 11697498001) in a glass Dounce homogenizer. The homogenization was performed at 4° C. The homogenate was transferred into polycarbonate centrifuge tubes (16×76 mm; Beckman 355603) and centrifuged at 100,000 g (38,000 RPM) in an ultracentrifuge (Beckman, XL100K) for 60 min at 4° C. using the pre-cooled 70.1 rotor (Beckman, 342184). Supernatants were discarded and pellets were re-suspended in 8.9 mL of homogenization buffer supplemented with 1% Triton X-100 (Sigma 93426) and processed with glass Dounce homogenizer at 4° C. The solution was then transferred into polycarbonate centrifuge bottles (16×76 mm; Beckman 355603) and centrifuged at 100,000 g (38,000 RPM) in an ultracentrifuge (Beckman, XL100K) for 60 min at 4° C. using the 70.1 Ti rotor. The process was repeated one more time (supernatants were discarded and pellets were re-suspended in 8.9 mL of homogenization buffer supplemented with 1% Triton X-100 and 1M sucrose processed with glass Dounce homogenizer at 4° C. The solution was then centrifuged at 100,000 g (38,000 RPM) for 60 min at 4° C. using the 70.1 Ti rotor). Supernatant was discarded and pellet was resuspended in 4 mL of PBS to obtain the insoluble fraction. The material was aliquoted and stored at −80° C. until use.
AD insoluble fractions diluted 1/100 were incubated in the presence of [^3H] Example 47 disclosed in WO2017/153601 used as Aβ reference binder, at a concentration of 7 nM and the example compounds of this invention were prepared at increasing concentrations in the range 0.4 nM to 2 μM for 120 minutes at 25° C. 90 μL of samples in duplicates were then filtered under vacuum on a GF/C filter plate (PerkinElmer 6005174) to trap the Aβ aggregates within the AD insoluble fractions with the bound radio-ligand, and washed five times with Tris 50 mM buffer pH 7-5. The GF/C filters were then vacuum-dried, 50 μL scintillation liquid (Ultimate Gold MB, PerkinElmer) was added in each well, and the filters were analyzed on a Microbeta2 device. Non-specific signal was determined with an excess of un-labeled ligand and specific binding was calculated by subtracting the non-specific signal from the total signal. Competition was calculated as percent, where 0% was defined as the specific binding in the presence of vehicle (0.1% DMSO in 50 mM Tris in 0.9% NaCl, 0.1% BSA) and 100% as the values obtained in the presence of excess cold Example 47 disclosed in WO2017/153601. The Ki values were calculated by nonlinear regression, one site specific binding using Prism V7 (GraphPad). Ki values to AD insoluble fraction were determined in independent experiments. Results of radio-binding competition assay on AD insoluble fraction are shown in Table 9 as measurements C and D. The Kd for the radioligand [^3H] Example 47 disclosed in WO2017/153601 on the AD insoluble fraction in measurements C and D was 8 nM.
Example compounds are ranked based on the measured Ki values to Aβ pathological aggregates present in the AD insoluble fractions.

[3] = measurement A, first batch of aSyn fibrils, radioligand [3H] Example 69 of WO2017/153601 (Kd 32 nM), read-out: Ki on aSyn Fibrils, measurement A
[4] = measurement B, second batch of aSyn fibrils, radioligand [3H] Example 69 of WO2017/153601 (Kd 60 nM), read-out: Ki on aSyn Fibrils, measurement B
[5] = measurement C, read-out: Ki on human AD-Insoluble Fraction, measurement C
[6] = measurement D, read-out: Ki on human AD-Insoluble Fraction, measurement D

pKi [1, 3] | pKi [1, 4] | pKi [2, 5] | pKi [2, 6] | binding to aSyn fibrils in comparison to Examples 70 and 71 of WO2017/153601 [1] | SMILES | also measured
7.83 | 7.50 | < 6.30 | – | – | CN1CCN(c2cc3sc(-c4ccc(N5CC[C@@H](F)C5)nc4)nc3cn2)C(=O)C1 [Example 1] | improvement of Ki value on aSyn fibrils compared to compounds 70 and 71 of WO2017/153601 [1]: improved by at least twofold
7.91 | 7.50 | < 6.30 | < 6.30 | – | CN1CCN(c2cc3sc(-c4ccc(N5CC[C@H](F)C5)nc4)nc3cn2)C(=O)C1 [Example 2] | improvement of Ki value on aSyn fibrils compared to compounds 70 and 71 of WO2017/153601 [1]: improved by at least twofold
– | 7.01 | – | < 6.30 | similar | CN1CCN(c2cc3sc(-c4ccc(N5CC(F)C5)nc4)nc3cn2)C(=O)C1 [Example 3A] | –
7.56 | – | 6.30 to 7.30 | 6.30 to 7.30 | improved | CNc1ncc(-c2nc3cnc(N4CCN(C)CC4=O)cc3s2)cc1F [Example 3B] | –
7.42 | – | – | < 6.30 | improved | CN1CCN(c2cc3sc(-c4cnc(N5CC[C@@H](F)C5)nc4)nc3cn2)C(=O)C1 [Example 3D] | –
– | 7.55 | < 6.30 | < 6.30 | – | CN1CCN(c2ncc3nc(-c4ccc(N5CC[C@@H](F)C5)nc4)sc3n2)C(=O)C1 [Example 3] | –
– | – | – | – | – | CN1CCN(c2ccc3nc(-c4ccc(N5CC[C@@H](F)C5)nc4)sc3n2)C(=O)C1 [Example 4] | improvement of Ki value on aSyn fibrils compared to compounds 70 and 71 of WO2017/153601 [1]: improved by at least twofold
– | 7.28 | – | < 6.30 | – | CN1CCN(c2ncc3nc(-c4ccc(N5CC[C@H](F)C5)nc4)sc3n2)C(=O)C1 [Example 4] | –
– | 7.38 | – | < 6.30 | – | CN1CCN(c2ccc3nc(-c4ccc(N5CC[C@@H](F)C5)nc4)sc3n2)C(=O)C1 [Example 5] | –
– | – | – | – | – | CN1CCN(c2ccc3nc(-c4ccc(N5CC[C@H](F)C5)nc4)sc3n2)C(=O)C1 [Example 5] | improvement of Ki value on aSyn fibrils compared to compounds 70 and 71 of WO2017/153601 [1]: improved by at least twofold
7.26 | – | – | < 6.30 | similar | CN1CCN(c2ncc3nc(-c4ccc(N5CC(F)C5)nc4)sc3n2)C(=O)C1 [Example 7A] | –
7.50 | – | – | < 6.30 | improved | CN1CCN(c2ncc3nc(-c4ccc(N5CCC[C@@H](F)C5)nc4)sc3n2)C(=O)C1 [Example 7B] | –
7.47 | – | < 6.30 | < 6.30 | improved | CN1CCN(c2ncc3nc(-c4ccc(N5CCC[C@H](F)C5)nc4)sc3n2)C(=O)C1 [Example 7C] | –
7.41 | 7.01 | < 6.30 | – | – | CN1CCN(c2ccc3nc(-c4ccc(N5CC[C@@H](F)C5)nc4)sc3c2)C(=O)C1 [Example 70 of WO2017/153601, reference compound] | –
7.33 | 7.13 | < 6.30 | – | – | CN1CCN(c2ccc3nc(-c4ccc(N5CC[C@H](F)C5)nc4)sc3c2)C(=O)C1 [Example 71 of WO2017/153601, reference compound] | –
– | – | – | – | – | [3H]C([3H])([3H])Nc1ccc(-c2ccc3cc(-c4cccnc4)sc3n2)cn1 [[^3H] Example 47 of WO2017/153601, reference compound] | pKd ([2]; measurements C and D, read-out: Kd of the radioligand on the AD insoluble fraction): 8.10
– | – | – | – | – | [3H]C([3H])([3H])N1CCN(c2ccc3nc(-c4ccc(N5CCCC5)nc4)sc3c2)C(=O)C1 [[^3H] Example 69 of WO2017/153601, reference compound] | pKd ([1]; batch of aSyn fibrils of measurement A): 7.49; pKd ([1]; second batch of aSyn fibrils, measurement B): 7.22

SMILES | pKi [1, 3] | pKi [1, 4] | pKi [2, 5] | pKi [2, 6] | binding to aSyn fibrils in comparison to Examples 70 and 71 of WO2017/153601 [1] | also measured
CN1CCN(c2cc3sc(-c4cnc(N5CCC5)c(F)c4)nc3cn2)C(=O)C1 [Example 3C] | 8.24 | – | – | < 6.30 | improved; also recorded: considerably greater affinity | –
